Results on 13 molecules are retold here after patent publication US20250018049A1, “COMPOUNDS FOR DEGRADING CYCLIN-DEPENDENT KINASE 2 VIA UBIQUITIN PROTEOSOME PATHWAY” (NIKANG THERAPEUTICS, INC., priority 2020, published 2025).

Common to all, as to format: cell-based
Experiment [1] deals with T1, CDK2 (Homo sapiens, UniProt P24941). Nature of the experiment: Phospho-Rb HTRF measurement in OVCAR3 cells (inhibition of CDK2). Further details: High-Throughput Measurement of Cellular Endogenous CDK2; endogenous in cells; host or cells: OVCAR3. As to conditions: pRB(S807/811) assay, 24 h compound treatment.
The target of experiment [2] is T1, CDK2. Briefly: CDK2 HTRF assay (cellular endogenous CDK2 level). More on the design: High-Throughput Measurement of Cellular Endogenous CDK2; endogenous in cells; host or cells: OVCAR3. The conditions noted are these: OVCAR-3; OVCAR3 cells, 24 hours, 0.3 to 10,000 nM; read-out: max degradation of CDK2. As to the method:
Effects of compounds on cellular CDK2 level can be monitored by a high-throughput HTRF assay or traditional Western Blot assay.
To determine half maximal degradation concentration (DC50) values of compounds, cellular CDK2 level was measured in 96-well format using HTRF total CDK2 cellular kit (Cat #64CDK2TPEG) from Cisbio.
On Day 1, OVCAR3 cells were seeded into 96-well tissue-culture treated plates at 20,000 cells/well in 200 μL and incubated overnight at 37° C. in CO2 atmosphere. On Day 2 cells were treated with compounds at concentration ranging from 0.3 to 10,000 nM using HP D300 digital dispenser. 24 hours after compound treatment, cell culture media was removed by flicking the plate and tapping the plate against clean paper towel. Immediately 30 μL 1× lysis buffer was supplemented from the kit and the plate was incubated at room temperature on shaker for 30 min. After homogenization by pipetting up and down, 8 μL cell lysate from 96-well cell culture plate was transferred to 384-well small volume white detection plate. 2 μL premixed detection solution was added and the plate was covered with sealer. To prepare the detection solution, d2 conjugated-CDK2 antibody and Eu-cryptate conjugated CDK2 antibody were diluted into detection buffer following manufacturer's instruction. Detection plates were incubated overnight at room temperature and read on ClarioStar (BMG Labtech) in TR-FRET mode (665 nM and 620 nM). The TR-FRET ratio (665 nM/620 nM) was plotted against the compound concentration and normalized to DMSO controls. Half maximal degradation concentration (DC50) values were calculated with a four-parameter logistic fit using GraphPad Prism (version 8; La Jolla, CA). FIG. 1 provides a dose-response curve of Compound 1 in Compound Table I in cellular CDK2 HTRF assay. IC50 in FIG. 1 is the same as DC50. Compounds 1, 13, 16, 22, 23, 28, 34, 35, 36, 37, 38, 39, 42, 48, 50, 51, 53, 54, 55, 56, 57, 58, 59, 60, 61, 62, 63, 65, 66, 68, 69, 70 were tested and max degradation of CDK2 observed was from about 35% to about 90%.

The target of experiment [3] is T1, CDK2. Nature of the experiment: NanoBRET CDK2 engagement assay. More on the design: expressed in transfected cells. As to conditions: OVCAR3 cells with stable CDK2-Luciferase vector, 24 hours treatment. The essentials: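 OVCAR3 cells stably expressing CDK2-luciferase, in Opti-MEM with 1% FBS, treated 24 h at 37° C with compound from 3 μM in ½-log steps to 0.3 nM; NanoBRET tracer present for final 2 h. Donor/acceptor emission read; engagement normalized to DMSO as 100% signal, IC50 by curve fit.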

A value given as a limit tells only on which side of the number the result lay.

On to `Cn1c(=O)n(C2CCC(=O)NC2=O)c2cccc(C#CCOC3CCN(CC4CCN(S(=O)(=O)N5CCC(Nc6ncc7ccc(=O)n(C8CCCC8)c7n6)CC5)CC4)CC3)c21` (centres unmarked) [Compound 13, 3-(4-(3-((1-((1-((4-((8-cyclopentyl-7-oxo-7,8-dihydropyrido[2,3-d]pyrimidin-2-yl)amino)-piperidin-1-yl)sulfonyl)piperidin-4-yl)methyl)-piperidin-4-yl)oxy)prop-1-yn-1-yl)-3-methyl-2-oxo-2,3-dihydro-1H-benzo[d]imidazol-1-yl)-piperidine-2,6-dione], for which the IC50 came out at 2.12 µM in experiment [1] and 0.292 µM in experiment [3]. Besides, the Dmax in experiment [2] was 35 to 90%.

Regarding `Cn1c(=O)n(C2CCC(=O)NC2=O)c2cccc(CCCOC3CCN(S(=O)(=O)N4CCC(Nc5ncc6ccc(=O)n(C7CCCC7)c6n5)CC4)CC3)c21` (centres unmarked) [Compound 16, 3-(4-(3-((1-((4-((8-cyclopentyl-7-oxo-7,8-dihydropyrido[2,3-d]pyrimidin-2-yl)amino)-piperidin-1-yl)sulfonyl)piperidin-4-yl)oxy)propyl)-3-methyl-2-oxo-2,3-dihydro-1H-benzo[d]-imidazol-1-yl)piperidine-2,6-dione], the IC50 in experiment [1] is 0.495 µM; in experiment [3] it was 0.32 µM. Besides, in experiment [2], the Dmax was 35 to 90%.

For the molecule `CN(CCN(C)S(=O)(=O)N1CCC(Nc2ncc3ccc(=O)n(C4CCCC4)c3n2)CC1)Cc1ccc(N(C)c2cccc3c2C(=O)N(C2CCC(=O)NC2=O)C3=O)cc1` (centres unmarked) [Compound 22, 4-((8-cyclopentyl-7-oxo-7,8-dihydropyrido[2,3-d]-pyrimidin-2-yl)amino)-N-(2-((4-((2-(2,6-dioxopiperidin-3-yl)-1,3-dioxoisoindolin-4-yl)(methyl)amino)benzyl)(methyl)amino)ethyl)-N-methylpiperidine-1-sulfonamide], the IC50 came out at 0.798 µM in experiment [1] and 0.903 µM in experiment [3]. Moreover, in experiment [2], the Dmax lay within 35 to 90%.

With `CN(CCCN1CCC(c2cccc3c2n(C)c(=O)n3C2CCC(=O)NC2=O)CC1)S(=O)(=O)N1CCC(Nc2ncc3ccc(=O)n(C4CCCC4)c3n2)CC1` (centres unmarked) [Compound 23, 4-((8-cyclopentyl-7-oxo-7,8-dihydropyrido[2,3-d]pyrimidin-2-yl)amino)-N-(3-(4-(1-(2,6-dioxo-piperidin-3-yl)-3-methyl-2-oxo-2,3-dihydro-1H-benzo[d]imidazol-4-yl)piperidin-1-yl)propyl)-N-methylpiperidine-1-sulfonamide], the IC50 was 0.0136 µM in experiment [1] and less than 0.001 µM in experiment [3]. In addition, in experiment [2], the Dmax was 35 to 90%.

In the case of `O=C1CCC(N2Cc3cc(C4CCN(CC5CCN(c6cccc(S(=O)(=O)N7CCC(Nc8ncc9ccc(=O)n(C%10CCCC%10)c9n8)CC7)c6)CC5)CC4)ccc3C2=O)C(=O)N1` (centres unmarked) [Compound 35, 3-(5-(1-((1-(3-((4-((8-cyclopentyl-7-oxo-7,8-dihydropyrido[2,3-d]pyrimidin-2-yl)amino)-piperidin-1-yl)sulfonyl)phenyl)piperidin-4-yl)-methyl)piperidin-4-yl)-1-oxoisoindolin-2-yl)piperidine-2,6-dione], the IC50 is 71.1 µM in experiment [1] and 0.139 µM in experiment [3]. For the same molecule, in experiment [2], the Dmax fell in the range of 35 to 90%.

On to `O=C1CCC(N2Cc3cc(N4CCN(CC5CCN(c6cccc(S(=O)(=O)N7CCC(Nc8ncc9ccc(=O)n(C%10CCCC%10)c9n8)CC7)c6)CC5)CC4)ccc3C2=O)C(=O)N1` (centres unmarked) [Compound 36, 3-(5-(4-((1-(3-((4-((8-cyclopentyl-7-oxo-7,8-dihydropyrido[2,3-d]pyrimidin-2-yl)amino)-piperidin-1-yl)sulfonyl)phenyl)piperidin-4-yl)-methyl)piperazin-1-yl)-1-oxoisoindolin-2-yl)-piperidine-2,6-dione], for which the IC50 in experiment [1] is 0.0257 µM; in experiment [3], 0.212 µM. Further, in experiment [2], the Dmax fell in the range of 35 to 90%.

As to `O=C1CCC(N2Cc3cc(C4CN(Cc5cccc(S(=O)(=O)N6CCC(Nc7ncc8ccc(=O)n(C9CCCC9)c8n7)CC6)c5)C4)ccc3C2=O)C(=O)N1` (centres unmarked) [Compound 37, 3-(5-(1-(3-((4-((8-cyclopentyl-7-oxo-7,8-dihydropyrido[2,3-d]pyrimidin-2-yl)amino)-piperidin-1-yl)sulfonyl)benzyl)azetidin-3-yl)-1-oxoisoindolin-2-yl)piperidine-2,6-dione], the IC50 was determined as 0.0257 µM in experiment [1] and 0.19 µM in experiment [3]. Moreover, the Dmax in experiment [2] was in the range of 35 to 90%.

As for `O=C1CCC(N2Cc3cc(N4CCC(CN5CCN(c6cccc(S(=O)(=O)N7CCC(Nc8ncc9ccc(=O)n(C%10CCCC%10)c9n8)CC7)c6)CC5)CC4)ccc3C2=O)C(=O)N1` (centres unmarked) [Compound 38, 3-(5-(4-((4-(3-((4-((8-cyclopentyl-7-oxo-7,8-dihydropyrido[2,3-d]pyrimidin-2-yl)amino)-piperidin-1-yl)sulfonyl)phenyl)piperazin-1-yl)-methyl)piperidin-1-yl)-1-oxoisoindolin-2-yl)-piperidine-2,6-dione], the IC50 in experiment [1] is 0.0111 µM; in experiment [3], 0.0423 µM. For the same molecule, the Dmax in experiment [2] lay in the range of 35 to 90%.

On to `Cn1c(=O)n(C2CCC(=O)NC2=O)c2cccc(C3CCN(C4CCN(c5cccc(S(=O)(=O)N6CCC(Nc7ncc8ccc(=O)n(C9CCCC9)c8n7)CC6)c5)CC4)CC3)c21` (centres unmarked) [Compound 39, 3-(4-(1′-(3-((4-((8-cyclopentyl-7-oxo-7,8-dihydro-pyrido[2,3-d]pyrimidin-2-yl)amino)piperidin-1-yl)sulfonyl)phenyl)-[1,4′-bipiperidin]-4-yl)-3-methyl-2-oxo-2,3-dihydro-1H-benzo[d]imidazol-1-yl)piperidine-2,6-dione], for which the figures for the IC50 in experiment [1] and in experiment [3] were 0.49 µM and 0.094 µM, respectively. The Dmax in experiment [2] lay within 35 to 90%.

For `O=C1CCC(N2Cc3cc(N4CCN(Cc5cccc(S(=O)(=O)N6CCC(Nc7ncc8ccc(=O)n(C9CCCC9)c8n7)CC6)c5)CC4)c(F)cc3C2=O)C(=O)N1` (centres unmarked) [Compound 42, 3-(5-(4-(3-((4-((8-cyclopentyl-7-oxo-7,8-dihydropyrido[2,3-d]pyrimidin-2-yl)amino)-piperidin-1-yl)sulfonyl)benzyl)piperazin-1-yl)-6-fluoro-1-oxoisoindolin-2-yl)piperidine-2,6-dione], the IC50 in experiment [1] amounted to 0.0247 µM; in experiment [3], 0.297 µM. Also, the Dmax in experiment [2] lay within 35 to 90%.

For the molecule `O=C1CCC(N2C(=O)c3cc(F)c(N4CCN(Cc5cccc(S(=O)(=O)N6CCC(Nc7ncc8ccc(=O)n(C9CCCC9)c8n7)CC6)c5)CC4)cc3C2=O)C(=O)N1` (centres unmarked) [Compound 48, 5-(4-(3-((4-((8-cyclopentyl-7-oxo-7,8-dihydro-pyrido[2,3-d]pyrimidin-2-yl)amino)piperidin-1-yl)sulfonyl)-benzyl)piperazin-1-yl)-2-(2,6-dioxo-piperidin-3-yl)-6-fluoroisoindoline-1,3-dione], the IC50 amounted to 0.131 µM in experiment [1] and 0.722 µM in experiment [3]. Besides, the Dmax in experiment [2] fell in the range of 35 to 90%.

Turning to `O=C1CCC(N2Cc3cc(N4CCN(Cc5cccc(S(=O)(=O)N6CCC(Nc7ncc8ccc(=O)n(C9CCCC9)c8n7)CC6)c5)CC4)ccc3C2=O)C(=O)N1` (centres unmarked) [Compound 50, 3-(5-(4-(3-((4-((8-cyclopentyl-7-oxo-7,8-dihydropyrido[2,3-d]pyrimidin-2-yl)-amino)-piperidin-1-yl)sulfonyl)benzyl)-piperazin-1-yl)-1-oxoisoindolin-2-yl)piperidine-2,6-dione], the values for the concentration for half-maximal inhibition (IC50) in experiment [1] and in experiment [3] were 0.049 µM and 0.289 µM, respectively. The Dmax in experiment [2] was in the range of 35 to 90%.

On to `O=C1CCC(N2C(=O)c3ccc(CN4CC(Oc5ccc(S(=O)(=O)N6CCC(Nc7ncc8ccc(=O)n(C9CCCC9)c8n7)CC6)cc5)C4)cc3C2=O)C(=O)N1` (centres unmarked) [compound 8, 5-((3-(4-((4-((8-cyclopentyl-7-oxo-7,8-dihydro-pyrido[2,3-d]pyrimidin-2-yl)amino)piperidin-1-yl)sulfonyl)phenoxy)azetidin-1-yl)methyl)-2-(2,6-dioxopiperidin-3-yl)isoindoline-1,3-dione], for which the IC50 in experiment [1] was determined as 0.438 µM; in experiment [3], 0.257 µM.
